Consider 60 compounds from US12520844B2 (Bayer Aktiengesellschaft, priority 2020, dated 2026).

The series can be described thus: Measurement of Log P values by HPLC on reversed phase columns (EEC directive 79/831 Annex V.A8). It is filed as physicochemical. How it is done: Measurement of Log P values as provided herein was performed according to EEC directive 79/831 Annex V.A8 by HPLC (High Performance Liquid Chromatography) on reversed phase columns with the following methods: • ^[a] Log P value is determined by measurement of LC-UV, in an acidic range, with 0.1% formic acid in water and acetonitrile as eluent (linear gradient from 10% acetonitrile to 95% acetonitrile). • ^[b] Log P value is determined by measurement of LC-UV, in a neutral range, with 0.001 molar ammonium acetate solution in water and acetonitrile as eluent (linear gradient from 10% acetonitrile to 95% acetonitrile). • ^[c] Log P value is determined by measurement of LC-UV, in an acidic range, with 0.1% phosphoric acid and acetonitrile as eluent (linear gradient from 10% acetonitrile to 95% acetonitrile).
If more than one Log P value is available within the same method, all the values are given and separated by “+”.
Calibration was done with straight-chain alkan2-ones (with 3 to 16 carbon atoms) with known Log P values (measurement of Log P values using retention times with linear interpolation between successive alkanones). Lambda-max-values were determined using UV-spectra from 200 nm to 400 nm and the peak values of the chromatographic signals
With `Cc1ncc(Oc2cccc(C(F)(F)F)c2)c(C(=O)NCC(F)(F)c2ccc(Br)cc2Cl)n1` [Compound I-004], the LogP is 4.49^[a].
As a reminder, the chromatographic logP is lipophilicity estimated from chromatographic retention. Lower therefore signals lower lipophilicity. In the case of `Cc1nnc(Oc2cccc(C(F)(F)F)c2)c(C(=O)NCC(F)(F)c2ccc(Br)cc2Cl)n1` [Compound I-005, N-[2-(4-bromo-2-chlorophenyl)-2,2-difluoroethyl]-3-methyl-6-[3-(trifluoromethyl)phenoxy]-1,2,4-triazine-5-carboxamide], the chromatographic logP amounted to 4.26.
For `Cc1nnc(Oc2cccc(C(F)(F)F)c2)c(C(=O)NCC(F)(F)c2ccc(Cl)cc2)n1` [Compound I-006], the LogP is 3.85^[a].
Regarding `Cc1nnc(Oc2cccc(C(F)(F)F)c2)c(C(=O)NCC(F)(F)c2ccc(Cl)cc2Cl)n1` [Compound I-007], the LogP is 4.20^[a].
With `Cc1ccc(C(F)(F)CNC(=O)c2nc(C)ncc2Oc2cccc(C(F)(F)F)c2)c(Cl)c1` [Compound I-008], the LogP is 4.37^[a].
Take `COc1ncc(Oc2cccc(C(F)(F)F)c2)c(C(=O)NCC(F)(F)c2ccc(C)cc2C)n1` [Compound I-009]: the LogP is 4.46^[a].
With `CCc1ncc(Oc2cccc(C(F)(F)F)c2)c(C(=O)NCC(F)(F)c2ccc(C)cc2C)n1` [Compound I-011], the LogP was 4.89^[a].
The same measure, in the same setting: the figure for `CSc1ncc(Oc2cccc(C(F)(F)F)c2)c(C(=O)NCC(F)(F)c2ccc(C)cc2C)n1` [Compound I-012] is 4.97^[a].
The same measure, in the same setting: with `Cc1ccc(C(F)(F)CNC(=O)c2nc(C)ncc2Oc2cccc(Cl)c2)c(C)c1` [Compound I-013] the figure was 4.30^[a]; with `Cc1ccc(C(F)(F)CNC(=O)c2nc(C3CC3)ncc2Oc2cccc(Cl)c2)c(C)c1` [Compound I-014], 5.00^[a].
Compound `Cc1ccc(C(F)(F)CNC(=O)c2nc(C)ncc2Oc2cccc(C3CC3)c2)c(C)c1` [Compound I-015, 5-(3-cyclopropylphenoxy)-N-[2-(2,4-dimethylphenyl)-2,2-difluoroethyl]-2-methylpyrimidine-4-carboxamide] gave a chromatographic logP of 4.38.
With `Cc1ncc(Oc2cccc(C3CC3)c2F)c(C(=O)NCCc2ncc(Cl)cn2)n1` [Compound I-016], the LogP is 2.72^[a].
As to `Cc1ncc(Oc2cccc(C3CC3)c2F)c(C(=O)N[C@H]2CCOc3ccc(F)cc32)n1` [Compound I-017], the LogP is 3.62^[a].
For `Cc1ncc(Oc2cccc(C3CC3)c2F)c(C(=O)NCCc2ccc(C(F)(F)F)cn2)n1` [Compound I-018], the LogP is 3.31^[a].
Consider `COc1cccc(Oc2cnc(C)nc2C(=O)NCC(F)(F)c2ccc(C)cc2C)c1` [Compound I-019], for which the LogP is 3.76^[a].
Regarding `Cc1ccc(C(F)(F)CNC(=O)c2nc(C)nnc2Oc2cccc(C3CC3)c2)c(Cl)c1` [Compound I-021], the LogP was 4.19^[a].
With `CC(=O)c1cccc(Oc2cnc(C)nc2C(=O)NCC(F)(F)c2ccc(C)cc2C)c1` [Compound I-022], the LogP was 3.40^[a].
Regarding `Cc1ccc(C(F)(F)CNC(=O)c2nc(C)ncc2Oc2ccc3ccsc3c2)c(C)c1` [Compound I-023], the LogP was 4.15^[a].
As to `Cc1ccc(C(F)(F)CNC(=O)c2nc(C3CC3)nnc2Oc2cccc(C(F)(F)F)c2)cc1C` [Compound I-024], the LogP is 4.66^[a].
Turning to `Cc1ccc(C(F)(F)CNC(=O)c2nc(C3CC3)nnc2Oc2cccc(Br)c2F)c(C)c1` [Compound I-025], the LogP is 4.66^[a].
Take `Cc1ccc(C(F)(F)CNC(=O)c2nc(C)ncc2Oc2cc(F)c(F)cc2F)c(C)c1` [Compound I-026]: the LogP is 4.02^[a].
In the case of `Cc1ccc(C(F)=CNC(=O)c2nc(C3CC3)nnc2Oc2cccc(Br)c2F)c(C)c1` [Compound I-027], the LogP was 5.36^[a].
Take `Cc1nnc(Oc2cccc(C3CC3)c2)c(C(=O)NCC(F)(F)c2ccc(Cl)cc2)n1` [Compound I-028]: the LogP was 4.01^[a].
For the compound `Cc1ncc(Oc2cccc(C3CC3)c2F)c(C(=O)NCCc2ccc3[nH]ccc3c2)n1` [Compound I-029], the LogP was 3.21^[a].
Consider `Cc1nnc(Oc2cccc(C3CC3)c2)c(C(=O)NCC(F)(F)c2ccc(C)c(C)c2)n1` [Compound I-031], for which the LogP was 4.19^[a].
Regarding `Cc1ncc(Oc2cccc(C3CC3)c2F)c(C(=O)NCCc2cnc(C(F)(F)F)nc2)n1` [Compound I-032], the LogP was 3.09^[a].
Still for that read-out and setting: the figure for `Cc1cccc(Oc2cnc(C)nc2C(=O)NCC(F)(F)c2ccc(C)cc2C)c1` [Compound I-033] is 4.06^[a].
Take `CON(CCc1ccc(Cl)cc1Cl)C(=O)c1nc(C)ncc1Oc1cccc(C2CC2)c1F` [Compound I-034]: the LogP is 4.91^[a].
Still for that read-out and setting: with `Cc1ccc(C(F)(F)CNC(=O)c2nc(C)ncc2Oc2cccc(N(C)C)c2)c(C)c1` [Compound I-035] the figure was 3.88^[a]; with `Cc1ccc(C(F)(F)CNC(=O)c2nc(C3CC3)nnc2Oc2cccc(C3CC3)c2F)c(C)c1` [Compound I-037], 4.81^[a]; with `C#Cc1cccc(Oc2nnc(C3CC3)nc2C(=O)N/C=C(\F)c2ccc(C)cc2C)c1` [Compound I-038], 4.59^[a].
For `Cc1ccc(C(F)(F)CNC(=O)c2nc(C)ncc2Oc2cccc(Cl)c2F)c(C)c1` [Compound I-039], the LogP was 4.22^[a].
Turning to `Cc1ccc(/C(F)=C\NC(=O)c2nc(C3CC3)nnc2Oc2cccc(C3CC3)c2F)c(C)c1` [Compound I-040], the LogP is 5.49^[a].
`Cc1ncc(Oc2cccc(C3CC3)c2F)c(C(=O)NCCc2ccc(C)o2)n1` [Compound I-041]: the LogP is 3.52^[a].
On to `Cc1ncc(Oc2cccc(C3CC3)c2F)c(C(=O)NCCc2cccc3[nH]ccc23)n1` [Compound I-042], for which the LogP was 3.23^[a].
On to `Cc1ncc(Oc2cccc(C3CC3)c2F)c(C(=O)NCC(F)c2ccc(C)c(C)c2)n1` (stereo not drawn) [Compound I-043], for which the LogP is 4.22^[a].
With `Cc1ccc(C(F)(F)CNC(=O)c2nc(C)ncc2Oc2cccc(OC(F)F)c2)c(C)c1` [Compound I-044], the LogP is 3.98^[a].
For the compound `Cc1ncc(Oc2cccc(C3CC3)c2F)c(C(=O)NC2CCCc3ccc(Br)cc32)n1` (stereo not drawn) [Compound I-045], the LogP was 4.55^[a].
In the case of `Cc1ncc(Oc2cccc(C3CC3)c2F)c(C(=O)NC2CCOc3ccccc32)n1` (stereo not drawn) [Compound I-046], the LogP is 3.54^[a].
In the case of `CCOc1cccc(Oc2cnc(C)nc2C(=O)NCC(F)(F)c2ccc(C)cc2C)c1` [Compound I-047], the LogP was 4.13^[a].
Take `Cc1ccc(C(F)=CNC(=O)c2nc(C3CC3)nnc2Oc2cccc(Br)c2F)c(C)c1` [Compound I-048]: the LogP is 5.04^[a].
As to `Cc1ccc(C(F)(F)CNC(=O)c2nc(C)ncc2Oc2ccc(C(F)(F)F)cc2)c(C)c1` [Compound I-049], the LogP is 4.39^[a].
With `Cc1ccc(C(F)(F)CNC(=O)c2nc(C3CC3)nnc2Oc2cccc(C)c2F)c(C)c1` [Compound I-050], the LogP is 4.47^[a].
With `Cc1ccc(/C(F)=C\NC(=O)c2nc(C3CC3)nnc2Oc2cccc(C)c2F)c(C)c1` [Compound I-051], the LogP is 5.16^[a].
For `Cc1cnn(CCNC(=O)c2nc(C)ncc2Oc2cccc(C3CC3)c2F)c1` [Compound I-052], the LogP was 2.59^[a].
On the same count and under the same terms, the figure for `Cc1ccc2c(c1)CCCC2NC(=O)c1nc(C)ncc1Oc1cccc(C2CC2)c1F` (stereo not drawn) [Compound I-053] is 4.49^[a]; for `Cc1ncc(Oc2cccc(C3CC3)c2F)c(C(=O)NCCOc2ccc(Cl)cc2)n1` [Compound I-054] it is 3.93^[a].
Same read-out and setting: with `Cc1ccc2c(c1)C(NC(=O)c1nc(C)ncc1Oc1cccc(C3CC3)c1F)CC(C)(C)O2` (stereo not drawn) [Compound I-055] the figure was 4.42^[a]; with `Cc1ccc(C(F)(F)CNC(=O)c2nc(C)ncc2Oc2cccc(C3COC3)c2)c(C)c1` [Compound I-056], 3.32^[a]; with `Cc1ncc(Oc2cccc(C3CC3)c2F)c(C(=O)NC2CCS(=O)(=O)c3ccccc32)n1` (stereo not drawn) [Compound I-057], 2.78^[a].
`Cc1ccc(C(F)(F)CNC(=O)c2nc(C)ncc2Oc2ccccc2)c(C)c1` [Compound I-058]: the LogP is 3.71^[a].
With `COCCOc1cccc(Oc2cnc(C)nc2C(=O)NCC(F)(F)c2ccc(C)cc2C)c1` [Compound I-059], the LogP is 3.66^[a].
For `COc1ccc2c(c1)C(NC(=O)c1nc(C)ncc1Oc1cccc(C3CC3)c1F)C(OC)CC2` (stereo not drawn) [Compound I-060], the LogP is 3.72^[a].
On the same count and under the same terms, the figure for `COc1cccc(Oc2nnc(C3CC3)nc2C(=O)N/C=C(\F)c2ccc(C)cc2C)c1` [Compound I-061] is 4.44^[a]; for `Cc1ccc(C(F)(F)CNC(=O)c2nc(C3CC3)nnc2Oc2cccc(Br)c2)c(C)c1` [Compound I-062] it is 4.59^[a]; for `Cc1ncc(Oc2cccc(C3CC3)c2F)c(C(=O)NCCc2cccs2)n1` [Compound I-064] it is 3.43^[a].
In the case of `CCC(=O)N(CCc1ccccc1)C(=O)c1nc(C)ncc1Oc1cccc(C2CC2)c1F` [Compound I-066], the LogP was 4.52^[a].
On to `COc1ccc(CCN(C(C)=O)C(=O)c2nc(C)ncc2Oc2cccc(C3CC3)c2F)cc1` [Compound I-067], for which the LogP was 4.01^[a].
With `Cc1ccc(C(F)(F)CNC(=O)c2nc(C)ncc2Oc2cncc(C(F)(F)F)c2)c(C)c1` [Compound I-068], the LogP is 3.73^[a].
As for `Cc1ncc(Oc2cccc(C3CC3)c2F)c(C(=O)NC2CCCc3cc(Br)ccc32)n1` (stereo not drawn) [Compound I-069], the LogP is 4.71^[a].
